Where two headings read alike, the source gives them in different places.
Columns and labels:
[1] = test system: influenza A/Puerto Rico/8/34 H1N1 (PR8) virus; test: microbe, parasite or virus in culture; assay type: cell-based; details: for IC50: Influenza A virus
in vitro [2] = details: human
in vitro [3] = details: dog
[4] = test system: influenza A/Puerto Rico/8/34 H1N1 (PR8) virus; test: microbe, parasite or virus in culture; assay type: cell-based; details: for IC50: Influenza A virus, 24 h, read-out: IC50 (concentration of compound causing 50% reduction of viral infection)
[5] = test system: influenza A/Puerto Rico/8/34 H1N1 (PR8) virus; assay type: cell-based
[6] = A549, 24 h, read-out: IC50 (concentration of compound causing 50% reduction of viral infection)

Row | Structure (SMILES) | IC50 [1, 6] [µM] | CC50 at 24 h (in vitro [2]) [µM] | CC50 (in vitro [3]) [µM] | IC50 [4] [µM] | SI (Selectivity Index, CC50/IC50) [4] | IC50 ([1]; A549, read-out: IC50 range against viral replication) [µg/mL] | foci of infection in cell monolayers [5] | CC50 (in vitro [2]) [µM] | antiviral activity against influenza A virus (in words) [1]
1 | C[N+]([O-])(CCc1ccc(O)cc1)Cc1ccc(O)cc1 (stereo not drawn) [Compound 12c, N-(4-Hydroxybenzyl)-2-(4-Hydroxyphenyl)-N-Methylethan-1-Amine Oxide] | 80.2 ± 4.9 | 83.8 ± 5 | 114 ± 5.2 | 84.7 ± 4.8 |  |  |  |  | 
2 | C[N+]([O-])(CCc1ccc(O)cc1)Cc1ccccc1 (stereo not drawn) [Compound 12e, N-Benzyl-2-(4-Hydroxyphenyl)-N-Methylethan-1-Amine Oxide] |  |  | 109 ± 5.1 | 133 ± 5.8 | 0.81 |  |  |  | 
3 | COc1cc(Br)c(C[N+](C)([O-])CCc2ccc(O)cc2)cc1O (stereo not drawn) [Compound 9, N-(2-Bromo-5-Hydroxy-4-Methoxybenzyl)-2-(4-Hydroxyphenyl)-N-Methylethan-1-Amine Oxide] | 377 ± 11.4 | 211 ± 8.1 | 206 ± 7.9 | 86.8 ± 5.1 |  |  |  |  | 
4 | COc1ccc(C[N+](C)([O-])CCc2ccc(O)cc2)cc1O (stereo not drawn) [Compound 12a, N-(3-Hydroxy-4-Methoxybenzyl)-2-(4-Hydroxyphenyl)-N-Methylethan-1-Amine Oxide] | 78.8 ± 4.3 | 200 ± 7.1 | 137 ± 5.8 | 137 ± 5.9 |  |  |  |  | 
5 | C[N+]([O-])(CCCc1ccccc1)Cc1cccc(O)c1 (stereo not drawn) [Compound 12h, N-(3-Hydroxybenzyl)-N-Methyl-3-Phenylpropan-1-Amine Oxide] | 70.4 ± 3.1 |  | 221 ± 8.9 | 73.2 ± 3.3 |  | 70 to 73 | reduction of foci of infection | 287 ± 8.3 | 
6 | C[N+]([O-])(CCc1ccc(O)cc1)Cc1ccc([N+](=O)[O-])c(O)c1 (stereo not drawn) [Compound 12d, N-(3-Hydroxy-4-Nitrobenzyl)-2-(4-Hydroxyphenyl)-N-Methylethan-1-Amine Oxide] | 1240 ± 30.2 |  | 101 ± 4.9 | 70.2 ± 4 |  |  |  | 113 ± 6.1 | deprived the molecule of antiviral activity
7 | C[N+]([O-])(CCc1ccc(O)cc1)Cc1cccc(O)c1 (stereo not drawn) [Compound 12b, N-(3-hydroxybenzyl)-2-(4-hydroxyphenyl)-N-methylethan-1-amine oxide] | 83.2 ± 5.1 | 149 ± 6.2 | 129 ± 6 | 138 ± 6.1 |  |  |  |  | 

From publication PMC7866262, “Laccase-Catalyzed 1,4-Dioxane-Mediated Synthesis of Belladine N-Oxides with Anti-Influenza A Virus Activity” (International Journal of Molecular Sciences, 2021)
